Data: patent publication US9796733B2, “Imidazo-pyrazine derivatives useful as soluble guanylate cyclase activators” (Merck Sharp & Dohme Corp., priority 2014, dated 2017)

Biological target: T1, sGC α1/β1 heterodimer (Homo sapiens, UniProt Q02108+Q02153)
T1 construct: expressed in transfected cells; host or cells: CHO-K1 (clone #7, CHO-K1/sGC)
T1 sequence (Q02108 1-690): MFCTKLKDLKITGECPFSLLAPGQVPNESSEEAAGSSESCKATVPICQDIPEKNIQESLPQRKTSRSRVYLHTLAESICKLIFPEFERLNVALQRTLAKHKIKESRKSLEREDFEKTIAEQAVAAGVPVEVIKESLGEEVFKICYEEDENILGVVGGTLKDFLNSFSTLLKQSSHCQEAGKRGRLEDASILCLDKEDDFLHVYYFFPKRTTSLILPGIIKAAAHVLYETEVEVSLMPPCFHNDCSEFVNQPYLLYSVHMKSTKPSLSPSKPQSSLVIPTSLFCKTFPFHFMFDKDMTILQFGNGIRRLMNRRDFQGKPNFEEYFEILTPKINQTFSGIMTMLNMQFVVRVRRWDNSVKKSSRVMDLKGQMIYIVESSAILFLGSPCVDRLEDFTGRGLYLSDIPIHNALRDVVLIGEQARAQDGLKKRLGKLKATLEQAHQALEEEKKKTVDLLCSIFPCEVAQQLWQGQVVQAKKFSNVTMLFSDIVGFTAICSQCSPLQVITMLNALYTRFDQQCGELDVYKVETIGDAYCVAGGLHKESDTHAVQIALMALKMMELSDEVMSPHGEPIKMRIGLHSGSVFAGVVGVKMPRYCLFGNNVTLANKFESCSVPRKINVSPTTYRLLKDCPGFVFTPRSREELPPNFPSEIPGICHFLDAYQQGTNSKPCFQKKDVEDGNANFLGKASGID
T1 sequence (Q02153 1-619): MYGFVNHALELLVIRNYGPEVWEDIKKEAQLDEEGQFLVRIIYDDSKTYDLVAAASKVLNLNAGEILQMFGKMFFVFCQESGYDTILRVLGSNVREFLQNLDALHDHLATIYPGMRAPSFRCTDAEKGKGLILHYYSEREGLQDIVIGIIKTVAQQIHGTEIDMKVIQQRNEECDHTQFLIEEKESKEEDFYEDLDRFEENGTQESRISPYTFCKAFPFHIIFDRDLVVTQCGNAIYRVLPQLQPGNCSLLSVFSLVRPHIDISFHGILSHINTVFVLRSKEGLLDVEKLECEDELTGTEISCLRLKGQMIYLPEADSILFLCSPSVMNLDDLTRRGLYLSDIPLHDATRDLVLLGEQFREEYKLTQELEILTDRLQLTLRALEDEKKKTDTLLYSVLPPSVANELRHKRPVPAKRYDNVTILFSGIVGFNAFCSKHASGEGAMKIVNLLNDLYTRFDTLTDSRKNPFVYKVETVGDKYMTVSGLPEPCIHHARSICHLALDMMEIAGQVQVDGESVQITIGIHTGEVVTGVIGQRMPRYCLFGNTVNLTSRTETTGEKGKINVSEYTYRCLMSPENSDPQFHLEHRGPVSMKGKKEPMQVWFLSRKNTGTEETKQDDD
Assay: Cell-based sGC functional assay (CASA assay): cGMP generation in CHO-K1/sGC cells, HTRF detection
Conditions: for Emax: CHO-K1, percent activation relative to standard Compound A in CHO-K1/sGC cells, read-out: % Act.; for EC50: inflection point (IP) of cGMP generation in CHO-K1/sGC cells, 4P fit, activity expressed as percentage of Compound A
Outline: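 Stable CHO-K1/sGC cells in EBSS buffer with 5 mM MgCl2, 0.05% BSA and 0.5 mM IBMX were incubated with compound (2.5% DMSO final) ±1 μM DETA-NO for 1 hr at 37° C. cGMP was measured by HTRF. Activation is expressed as % of reference HDA Compound A maximum, with IP and max fold induction from a 4P fit.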

Row | SMILES | Emax | EC50 | % Act. (percent activation relative to standard Compound A in CHO-K1/sGC cells)
1 | CC1(c2ccc(Cl)c(F)c2)C(=O)Nc2nc(-c3cn4ccnc4c(CC4CCC4)n3)nc(N)c21 (stereo not shown) [Example 113B, 4-amino-5-(4-chloro-3-fluorophenyl)-2-(8-(cyclobutylmethyl)imidazo [1,2-a]pyrazin-6-yl)-5-methyl-5H-pyrrolo[2,3-d]pyrimidin-6(7H)-one] | 138% | 5 nM | 
2 | NC(=O)C1(C2CC2)C(=O)Nc2nc(-c3cn4ccnc4c(Cc4cccc(F)c4)n3)nc(N)c21 (stereo not shown) [Example 42B, 4-amino-5-cyclopropyl-2-(8-(3-fluorobenzyl)imidazo[1,2-a]pyrazin-6-yl)-6-oxo-6,7-dihydro-5H-pyrrolo[2,3-d]pyrimidine-5-carboxamide] | 103% | 32 nM | 
3 | CCCCc1nc(-c2nc(N)c3c(n2)NC(=O)C3(C)c2ccc(Cl)cn2)cn2c(C)cnc12 (stereo not shown) [Example 169A, 4-amino-2-(8-butyl-3-methylimidazo[1,2-a]pyrazin-6-yl)-5-(5-chloropyridin-2-yl)-5-methyl-5H-pyrrolo[2,3-d]pyrimidin-6(7H)-one] | 75% | 19 nM | 
4 | Nc1nc(-c2cn3ccnc3c(Cc3ccccc3F)n2)nc2c1C(c1ccc(Cl)cn1)(C1CC1)C(=O)N2 (stereo not shown) [Example 110A, 4-amino-5-(5-chloropyridin-2-yl)-5-cyclopropyl-2-(8-(2-fluorobenzyl)imidazo[1,2-a]pyrazin-6-yl)-5H-pyrrolo[2,3-d]pyrimidin-6(7H)-one] | 154% | 51 nM | 
5 | Nc1nc(-c2cn3ccnc3c(CCCC(F)(F)F)n2)nc2c1C(c1ncc(Cl)cc1F)(C1CC1)C(=O)N2 (single isomer, unassigned) [Example 371A, 4-amino-5-(5-chloro-3-fluoropyridin-2-yl)-5-cyclopropyl-2-(8-(4,4,4-trifluorobutyl)imidazo[1,2-a]pyrazin-6-yl)-5H-pyrrolo[2,3-d]pyrimidin-6(7H)-one] | 82% | 194 nM | 
6 | CC(C)Cc1nc(-c2nc(N)c3c(n2)NC(=O)C3(c2ccc(Cl)cc2)C2CC2)cn2ccnc12 (stereo not shown) [Example 22B, 4-amino-5-(4-chlorophenyl)-5-cyclopropyl-2-(8-isobutylimidazo[1,2-a]pyrazin-6-yl)-5H-pyrrolo[2,3-d]pyrimidin-6(7H)-one] | 91% | 150 nM | 
7 | CC1(c2ccc(F)cc2)C(=O)Nc2nc(-c3cn4cc(C(F)(F)F)nc4c(Cc4cccc(F)c4F)n3)nc(N)c21 (stereo not shown) [Example 148A, 4-amino-2-(8-(2,3-difluorobenzyl)-2-(trifluoromethyl)imidazo[1,2-a]pyrazin-6-yl)-5-(4-fluorophenyl)-5-methyl-5H-pyrrolo[2,3-d]pyrimidin-6(7H)-one] | 148% | 24 nM | 
8 | CC1(C)C(=O)Nc2nc(-c3cn4ccnc4c(Cc4cccc(Cl)c4)n3)nc(N)c21 [Example 74, 4-amino-2-(8-(3-chlorobenzyl)imidazo[1,2-a]pyrazin-6-yl)-5,5-dimethyl-5H-pyrrolo[2,3-d]pyrimidin-6(7H)-one] | 94% | 138 nM | 
9 | CC1(c2ccccc2)C(=O)Nc2nc(-c3cn4c(Cl)cnc4c(CCC(F)(F)C(F)(F)F)n3)nc(N)c21 (stereo not shown) [Example 256B, 4-amino-2-(3-chloro-8-(3,3,4,4,4-pentafluorobutyl)imidazo [1,2-a]pyrazin-6-yl)-5-methyl-5-phenyl-5H-pyrrolo[2,3-d]pyrimidin-6(7H)-one] | 86% | 24 nM | 
10 | Nc1nc(-c2cn3cc(C(F)(F)F)nc3c(Cc3cccc(F)c3F)n2)nc2c1C(C(=O)NC1CC1)(C1CC1)C(=O)N2 (stereo not shown) [Example 48B, 4-amino-N,5-dicyclopropyl-2-(8-(2,3-difluorobenzyl)-2-(trifluoromethyl)imidazo[1,2-a]pyrazin-6-yl)-6-oxo-6,7-dihydro-5H-pyrrolo[2,3-d]pyrimidine-5-carboxamide] | 93% | 442 nM | 
11 | Nc1nc(-c2cn3ccnc3c(Cc3cccc(F)c3)n2)nc2c1C(C(=O)NC1CC1)(C1CC1)C(=O)N2 (single isomer, unassigned) [Example 38A, 4-amino-N,5-dicyclopropyl-2-(8-(3-fluorobenzyl)imidazo[1,2-a]pyrazin-6-yl)-6-oxo-6,7-dihydro-5H-pyrrolo[2,3-d]pyrimidine-5-carboxamide] |  | 61 nM | 124%
12 | CCCCc1nc(-c2nc(N)c3c(n2)NC(=O)C3(c2ccc(F)cc2)C2CCC2)cn2ccnc12 (single isomer, unassigned) [Example 361B, 4-amino-2-(8-butylimidazo[1,2-a]pyrazin-6-yl)5-cyclobutyl-5-(4-fluorophenyl)-5H-pyrrolo[2,3-d]pyrimidin-6(7H)-one] | 157% | 47 nM | 

Next, values leading:

Row | Emax | EC50 | % Act. (percent activation relative to standard Compound A in CHO-K1/sGC cells) | SMILES
13 | 133% | 376 nM |  | CC1(c2ccc(Cl)cc2)C(=O)Nc2nc(-c3cn4ccnc4cn3)nc(NC3CC(F)(F)C3)c21 (stereo not shown) [Example 287A, 5-(4-chlorophenyl)-4-((3,3-difluorocyclobutyl)amino)-2-(imidazo[1,2-a]pyrazin-6-yl)-5-methyl-5H-pyrrolo[2,3-d]pyrimidin-6(7H)-one]
14 | 108% | 5 nM |  | CC1(c2ccc(F)cc2)C(=O)Nc2nc(-c3cn4ccnc4c(Cc4cccc(Cl)c4)n3)nc(N)c21 (stereo not shown) [Example 94A, 4-amino-2-(8-(3-chlorobenzyl)imidazo[1,2-a]pyrazin-6-yl)-5-(4-fluorophenyl)-5-methyl-5H-pyrrolo[2,3-d]pyrimidin-6(7H)-one]
15 | 106% | 289 nM |  | CC1(c2ccc(Cl)cc2)C(=O)Nc2nc(-c3cn4ccnc4cn3)nc(NCCC(F)(F)F)c21 (stereo not shown) [Example 289A, 5-(4-chlorophenyl)-2-(imidazo[1,2-a]pyrazin-6-yl)-5-methyl-4-((3,3,3-trifluoropropyl)amino)-5H-pyrrolo[2,3-d]pyrimidin-6(7H)-one]
16 | 106% | 4 nM |  | CC1(c2ccc(F)cc2)C(=O)Nc2nc(-c3cn4ccnc4c(Cc4ccc(F)c(F)c4)n3)nc(N)c21 (stereo not shown) [Example 96A, 4-amino-2-(8-(3,4-difluorobenzyl)imidazo[1,2-a]pyrazin-6-yl)-5-(4-fluorophenyl)-5-methyl-5H-pyrrolo[2,3-d]pyrimidin-6(7H)-one]
17 | 163% | 56 nM |  | CC1(c2ccc(Cl)cc2)C(=O)Nc2nc(-c3cn4ccnc4cn3)nc(NCC3CC3)c21 (stereo not shown) [Example 283A, 5-(4-chlorophenyl)-4-((cyclopropylmethyl)amino)-2-(imidazo[1,2-a]pyrazin-6-yl)-5-methyl-5H-pyrrolo[2,3-d]pyrimidin-6(7H)-one]
18 | 123% | 32 nM |  | CC1(c2ccc(F)cc2)C(=O)Nc2nc(-c3cn4ccnc4c(CCc4cccc(F)c4)n3)nc(N)c21 (stereo not shown) [Example 4A, 4-amino-2-(8-(3-fluorophenethyl)imidazo[1,2-a]pyrazin-6-yl)-5-(4-fluorophenyl)-5-methyl-5H-pyrrolo[2,3-d]pyrimidin-6(7H)-one]
19 | 76% | 354 nM |  | CCc1cnc2c(CCC(F)(F)C(F)(F)F)nc(-c3nc(N)c4c(n3)NC(=O)C4(C)c3ccc(F)cc3)cn12 (stereo not shown) [Example 161A, 4-amino-2-(3-ethyl-8-(3,3,4,4,4-pentafluorobutyl)imidazo [1,2-a]pyrazin-6-yl)-5-(4-fluorophenyl)-5-methyl-5H-pyrrolo[2,3-d]pyrimidin-6(7H)-one]
20 | 87% | 324 nM |  | CC(C)Cc1nc(-c2nc(N)c3c(n2)NC(=O)C3(C)c2ccc(OC(F)(F)F)cc2)cn2ccnc12 (stereo not shown) [Example 25A, 4-amino-2-(8-isobutylimidazo[1,2-a]pyrazin-6-yl)-5-methyl-5-(4-(trifluoromethoxy)phenyl)-5H-pyrrolo[2,3-d]pyrimidin-6(7H)-one]
